Experimental data reported in patent publication US12201707B2, “Nano-emulsion composition for tooth whitening and method for producing the same” (AMOREPACIFIC CORPORATION, priority 2021, dated 2025).

Test: Tooth whitening test
Description: Discoloration was induced by immersing 12 hydroxyapatite (HAP) discs in black tea. Subsequently, the four discolored discs were immersed in vials containing each of the nanoemulsion composition of Example 31, a nanoemulsion composition in which oxygen was not captured as a control (control group 1), distilled water as a control (control group 2), and 3% hydrogen peroxide as a control (control group 3), respectively. The lightness values (L values) of the discs were measured on days 0, 2, 4 and 6 using a spectrophotometer. Before each measurement, the discs were completely dried at 55° C. for 1 hour using an oven.

Which results are given for `OO` [Control 3, hydrogen peroxide]?
lightness value (L value) of disc (Day 0): 72.9; lightness value (L value) of disc (Day 2): 84.3; lightness value (L value) of disc (Day 4): 92.96; lightness value (L value) of disc (Day 6): 97.48
